# How the values were obtained:
# [1] = tested on: bamyardgrass; assay: Test B flood test barnyardgrass; assay type: in vivo, Echinochloa crus-galli
# Summary of the method: (§1)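 Plants were grown to the 2-leaf stage before treatment with test chemical, then held in a greenhouse for twelve to sixteen days. Injury was visually rated against untreated controls on a 0–10 scale, where 0 is no effect and 10 is complete control.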
# [2] = tested on: corn; assay: Test B pre/postemergence corn; assay type: in vivo, Zea mays
# Summary of the method: (§2)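 Response is a visual 0-to-10 score relative to untreated plants, where 0 means no effect and 10 means complete control, taken twelve to sixteen days after application. Treatments went onto soil at planting and onto foliage of 1- to 4-leaf plants, using a surfactant-containing non-phytotoxic solvent.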
# [3] = tested on: crabgrass; assay: Test B pre/postemergence crabgrass; assay type: in vivo, Digitaria sanguinalis
# Summary of the method: as §2
# [4] = tested on: smallflower flatsedge; assay: Test B flood test smallflower flatsedge; assay type: in vivo, Cyperus difformis
# Summary of the method: as §1
# [5] = tested on: rape; assay: Test B pre/postemergence rape; assay type: in vivo, Brassica napus
# Summary of the method: as §2
# [6] = tested on: purple nutsedge; assay: Test B pre/postemergence purple nutsedge; assay type: in vivo, Cyperus rotundus
# Summary of the method: as §2
# [7] = tested on: bedstraw; assay: Test B pre/postemergence bedstraw; assay type: in vivo, Galium aparine
# Summary of the method: as §2
# [8] = tested on: giant foxtail; assay: Test B pre/postemergence giant foxtail; assay type: in vivo, Setaria faberii
# Summary of the method: as §2
# [9] = tested on: duck salad; assay: Test B flood test duck salad; assay type: in vivo, Heteranthera limosa
# Summary of the method: as §1
# [10] = tested on: cocklebur; assay: Test B pre/postemergence cocklebur; assay type: in vivo, Xanthium strumarium
# Summary of the method: as §2
# [11] = tested on: wheat; assay: Test B pre/postemergence wheat; assay type: in vivo, Triticum aestivum
# Summary of the method: as §2
# [12] = tested on: morningglory; assay: Test B pre/postemergence morningglory; assay type: in vivo, Ipomoea hederacea
# Summary of the method: as §2
# [13] = tested on: rice; assay: Test B flood test rice; assay type: in vivo, Oryza sativa
# Summary of the method: as §1
# [14] = tested on: sugar beet; assay: Test B pre/postemergence sugar beet; assay type: in vivo, Beta vulgaris
# Summary of the method: as §2
# [15] = tested on: wild oat; assay: Test B pre/postemergence wild oat; assay type: in vivo, Avena fatua
# Summary of the method: as §2
# [16] = tested on: velvetleaf; assay: Test B pre/postemergence velvetleaf; assay type: in vivo, Abutilon theophrasti
# Summary of the method: as §2
# [17] = tested on: soybean; assay: Test B pre/postemergence soybean; assay type: in vivo, Glycine max
# Summary of the method: as §2
# [18] = tested on: blackgrass; assay: Test B pre/postemergence blackgrass; assay type: in vivo, Alopecurus myosuroides
# Summary of the method: as §2
# [19] = tested on: pigweed; assay: Test B pre/postemergence pigweed; assay type: in vivo, Amaranthus retroflexus
# Summary of the method: as §2
# [20] = tested on: surinam grass; assay: Test B pre/postemergence surinam grass; assay type: in vivo, Brachiaria decumbens
# Summary of the method: as §2
# [21] = Rate 62 g/ha, flood test species, Pre-emergence, visual evaluation after twelve to sixteen days
# [22] = Rate 125 g/ha, under heading Pre-emergence, flood test species, visual evaluation after twelve to sixteen days
# [23] = Rate 250 g/ha, Pre-emergence, flood-test species, scale 0 to 10, 0 is no effect, 10 is complete control
# [24] = Postemergence, Rate 125 g/ha, scale 0 to 10, 0 is no effect, 10 is complete control
# [25] = Postemergence, Rate 250 g/ha, scale 0 to 10, 0 is no effect, 10 is complete control
# [26] = Postemergence, Rate 500 g/ha, scale of 0 to 10 where 0 is no effect and 10 is complete control
# [27] = Preemergence, Rate 62 g/ha, scale 0 to 10 (0 no effect, 10 complete control)
# [28] = Preemergence, Rate 125 g/ha, scale of 0 to 10 where 0 is no effect and 10 is complete control
# [29] = Preemergence, Rate 250 g/ha, scale 0 to 10, 0 is no effect, 10 is complete control
# [30] = Preemergence, Rate 500 g/ha, scale 0 to 10, 0 is no effect, 10 is complete control
# [31] = Rate 62 g/ha, Postemergence, scale of 0 to 10 where 0 is no effect and 10 is complete control
# [32] = Preemergence, Rate 250 g/ha, scale of 0 to 10 where 0 is no effect and 10 is complete control
structure (smiles),measurement,setting,value
CC(C)N(C(=O)n1oc(=O)n(C(C)C2CC2)c1=O)c1ccc(F)cc1 (stereo not drawn) [Compound 404],"Plant response rating, Barnyardgrass (0 to 10 scale, 0 is no effect, 10 is complete control)",[1]; [21],4
same,"Barnyardgrass plant response rating (0 to 10 scale, 0 is no effect, 10 is complete control)",[1]; [22],9
same,Barnyardgrass plant response rating,[1]; [23],9
same,"Plant response rating, Corn",[2]; [24],0
same,"Plant response rating, Corn",[2]; [25],0
same,Corn plant response rating,[2]; [26],1
same,"Plant response rating, Corn",[2]; [27],0
same,"Plant response rating, Corn",[2]; [28],2
same,Corn plant response rating,[2]; [29],2
same,Corn plant response rating,[2]; [30],6
same,Corn plant response rating,[2]; [31],0
same,"Plant response rating, Crabgrass",[3]; [24],3
same,"Plant response rating, Crabgrass",[3]; [25],5
same,Crabgrass plant response rating,[3]; [26],8
same,"Plant response rating, Crabgrass",[3]; [27],10
same,"Plant response rating, Crabgrass",[3]; [28],10
same,Crabgrass plant response rating,[3]; [29],10
same,Crabgrass plant response rating,[3]; [30],10
same,Crabgrass plant response rating,[3]; [31],0
same,"Plant response rating, S. Flatsedge (0 to 10 scale, 0 is no effect, 10 is complete control)",[4]; [21],0
same,"S. Flatsedge plant response rating (0 to 10 scale, 0 is no effect, 10 is complete control)",[4]; [22],0
same,S. Flatsedge plant response rating,[4]; [23],8
same,"Plant response rating, Rape",[5]; [25],4
same,Rape plant response rating,[5]; [26],8
same,"Plant response rating, Rape",[5]; [27],1
same,"Plant response rating, Rape",[5]; [28],4
same,Rape plant response rating,[5]; [29],7
same,Rape plant response rating,[5]; [30],8
same,"Plant response rating, Nutsedge",[6]; [25],0
same,Nutsedge plant response rating,[6]; [26],0
same,"Plant response rating, Nutsedge",[6]; [27],0
same,"Plant response rating, Nutsedge",[6]; [28],0
same,Nutsedge plant response rating,[6]; [29],0
same,Nutsedge plant response rating,[6]; [30],0
same,"Plant response rating, Bedstraw",[7]; [25],8
same,"Plant response rating, Bedstraw",[7]; [27],0
same,Bedstraw plant response rating,[7]; [32],10
same,Bedstraw plant response rating,[7]; [30],10
same,"Plant response rating, Giant foxtail",[8]; [24],9
same,"Plant response rating, Giant foxtail",[8]; [25],9
same,Giant foxtail plant response rating,[8]; [26],9
same,"Plant response rating, Giant foxtail",[8]; [27],10
same,"Plant response rating, Giant foxtail",[8]; [28],10
same,Giant foxtail plant response rating,[8]; [29],10
same,Giant foxtail plant response rating,[8]; [30],10
same,Giant foxtail plant response rating,[8]; [31],5
same,"Plant response rating, Ducksalad (0 to 10 scale, 0 is no effect, 10 is complete control)",[9]; [21],0
same,"Ducksalad plant response rating (0 to 10 scale, 0 is no effect, 10 is complete control)",[9]; [22],1
same,Ducksalad plant response rating,[9]; [23],5
same,"Plant response rating, Cocklebur",[10]; [24],2
same,"Plant response rating, Cocklebur",[10]; [25],2
same,Cocklebur plant response rating,[10]; [26],3
same,"Plant response rating, Cocklebur",[10]; [27],0
same,"Plant response rating, Cocklebur",[10]; [28],0
same,Cocklebur plant response rating,[10]; [29],0
same,Cocklebur plant response rating,[10]; [30],0
same,Cocklebur plant response rating,[10]; [31],0
same,Wheat plant response rating,[11]; [26],3
same,"Plant response rating, Wheat",[11]; [27],0
same,"Plant response rating, Wheat",[11]; [28],2
same,Wheat plant response rating,[11]; [29],4
same,Wheat plant response rating,[11]; [30],5
same,"Plant response rating, Morningglory",[12]; [25],7
same,Morningglory plant response rating,[12]; [26],10
same,"Plant response rating, Morningglory",[12]; [27],0
same,"Plant response rating, Morningglory",[12]; [28],2
same,Morningglory plant response rating,[12]; [29],4
same,Morningglory plant response rating,[12]; [30],5
same,"Plant response rating, Rice (0 to 10 scale, 0 is no effect, 10 is complete control)",[13]; [21],0
same,"Rice plant response rating (0 to 10 scale, 0 is no effect, 10 is complete control)",[13]; [22],0
same,Rice plant response rating,[13]; [23],7
same,"Plant response rating, Sugarbeets",[14]; [25],1
same,Sugarbeets plant response rating,[14]; [26],4
same,"Plant response rating, Sugarbeets",[14]; [27],0
same,"Plant response rating, Sugarbeets",[14]; [28],3
same,Sugarbeets plant response rating,[14]; [29],6
same,Sugarbeets plant response rating,[14]; [30],8
same,Wild oats plant response rating,[15]; [26],8
same,"Plant response rating, Wild oats",[15]; [27],3
same,"Plant response rating, Wild oats",[15]; [28],8
same,Wild oats plant response rating,[15]; [29],10
same,Wild oats plant response rating,[15]; [30],10
same,"Plant response rating, Velvetleaf",[16]; [25],0
same,Velvetleaf plant response rating,[16]; [26],6
same,"Plant response rating, Velvetleaf",[16]; [27],0
same,"Plant response rating, Velvetleaf",[16]; [28],1
same,Velvetleaf plant response rating,[16]; [29],5
same,Velvetleaf plant response rating,[16]; [30],7
same,"Plant response rating, Soybean",[17]; [25],6
same,Soybean plant response rating,[17]; [26],7
same,"Plant response rating, Soybean",[17]; [27],0
same,"Plant response rating, Soybean",[17]; [28],0
same,Soybean plant response rating,[17]; [29],0
same,Soybean plant response rating,[17]; [30],3
same,"Plant response rating, Blackgrass",[18]; [25],10
same,Blackgrass plant response rating,[18]; [26],10
same,"Plant response rating, Blackgrass",[18]; [27],6
same,"Plant response rating, Blackgrass",[18]; [28],7
same,Blackgrass plant response rating,[18]; [32],9
same,Blackgrass plant response rating,[18]; [30],10
same,Blackgrass plant response rating,[18]; [31],5
same,"Plant response rating, Redroot pigweed",[19]; [25],5
same,Redroot pigweed plant response rating,[19]; [26],7
same,"Plant response rating, Redroot pigweed",[19]; [27],2
same,"Plant response rating, Redroot pigweed",[19]; [28],6
same,Redroot pigweed plant response rating,[19]; [29],10
same,Redroot pigweed plant response rating,[19]; [30],10
same,"Plant response rating, B. signalgrass",[20]; [24],2
same,B. signalgrass plant response rating,[20]; [26],6
same,"Plant response rating, B. signalgrass",[20]; [27],2
same,"Plant response rating, B. signalgrass",[20]; [28],4
same,B. signalgrass plant response rating,[20]; [32],8
same,B. signalgrass plant response rating,"[20]; Preemergence, Rate 500 g/ha, scale of 0 to 10 where 0 is no effect and 10 is complete control",10
same,B. signalgrass plant response rating,[20]; [31],2

# — patent publication US6737383B1, “Herbicidal oxadiazolidines” (priority 1999, dated 2004)
